Results on four molecules are retold here after patent publication US20090069363A1, “Therapeutic Agent for Constipation” (SHIONOGI & CO. LTD. A LEGAL ENTITY OF JAPAN, priority 2004, published 2009).

In assay [1] the test system is morphine-induced gastrointestinal transit inhibition. The assay is described as follows: Influence on morphine-induced inhibitory action against transport competence of gastrointestinal tract (carbon powder transfer rate). In kind it is in vivo. The settings on record: mouse, 15 min before morphine 3 mg/kg s.c. The procedure:
After weighing each test compound, 0.5% methylcellulose (methylcellulose: Wako Pure Chemicals, water for injection: Otsuka Pharmaceutical Factory) was added, and the obtained mixture was well stirred to prepare solutions containing the test compound at final concentrations of 3 mg/mL, 1 mg/mL and 0.3 mg/mL, respectively.
After weighing each test compound, 5% xylitol (Kylit injection (registered trademark), Otsuka Pharmaceutical Factory) was added and the mixture was well stirred to prepare solutions containing the test compound at a final concentration of 1 mg/mL. The solutions having concentrations of 0.3 mg/mL and 0.1 mg/mL, respectively, were prepared by diluting the solution having the concentration of 1 mg/mL.
Preparation Method: After weighing, physiological saline was added and the mixture was well stirred to prepare a solution having a concentration of 0.3 mg/mL.
• Crj:CD-1(ICR) mouse (SPF, male, 5-week old, body weight: 25.6-32.0 g (oral administration), 26.3-33.0 g (subcutaneous administration), Charles River Laboratories Japan)
• Control Group: 8 animals; Solvent-administered Group: 8 animals; Compound 1: 3, 10 and 30 mg/kg Groups: each 8 animals; Compound 2: 3, 10 and 30. mg/kg Groups: each 8 animals; Compound 3: 3, 10 and 30 mg/kg Groups: each 8 animals
• Control Group: 8 animals, Solvent-administered Group: 8 animals; Compound 1: 3, 10 and 30 mg/kg Groups: each 8 animals; Compound 2: 3, 10 and 30 mg/kg Groups: each 8 animals; Compound 3: 3, 10 and 30 mg/kg Groups: each 8 animals
• Administration volume: 10 mL/kg • Administration Method: Oral administration was carried out using a disposable syringe and an oral feeding tube.
Subcutaneous administration was carried out using a disposable syringe and a disposable injection needle. • Administration Frequency: single
Mice fasted overnight from the evening on one day before the test were used. Each test compound was administered, and 15 minutes later, morphine (3 mg/kg) was subcutaneously administered. 30 minutes after the administration of morphine, carbon powder (a suspension containing 5% of carbon powder suspended in 10% gum Arabic) was orally administered to each mouse in an amount of 0.1 mL, and the transfer rate (the distance which the carbon powder reached/the distance between the pylorus to cecum opening×100) was measured at 30 minutes after the administration of carbon powder. To the solvent-administered group, a solvent (methylcellulose or xylitol) was administered in place of the test substance solution. To the control group, none of the test substance, morphine and the solvent was administered and the transfer rate of the carbon powder was measured.

Assay [2] deals with morphine-induced small intestine transit inhibition. The assay is described as follows: Influence on morphine-induced small intestine transit inhibition (Evans blue test meal). In kind it is in vivo. The note with it: rat. The procedure:
Using aqueous 0.5 w/v % Evans blue solution, 2.5 w/v % carboxymethylcellulose salt solution was prepared and used as the test meal.
Male Wistar rats (Crj. Wistar, Charles River Laboratories Japan, 6 to 7-week old) were used. The rats were fasted from not less than 20 hours before the beginning of the test, and water was given ad libitum.
The compound (I-1) synthesized in Example 1 was dissolved in a solvent (DMAA/Solutol/5% meglumine=15/15/70) • DMAA: N,N-dimethylacetamide (Kanto Chemical) • Solutol: Solutol (registered trademark) HS15 (BASF) • Meglumine: D(−)-N-methylglucamin (Merck)
Morphine hydrochloric acid salt (Dainippon Pharma) was dissolved in normal saline.
All of the test substance, solvent and morphine were administered in avolume of 2 mL/kg.
Each test substance in an amount of 0.03, 0.1, 0.3, 1 or 3 mg/kg (Test Substance—administered Groups) or the above-described solvent (Solvent-administered Group) was subcutaneously administered, and 75 minutes later, 3 mg/kg of morphine was subcutaneously administered to all groups. […]
The test meal in an amount of 2 mL/rat was orally administered at 30 minutes after the administration of morphine. […] The distance between the cardia and the ileocecum (full length of small intestine), and the distance up to the tip of the pigment (moving distance of the pigment) were measured. […]

[3] abbreviates: test substance 1 mg/kg subcutaneous.
Where [4] appears, read: test substance 3 mg/kg subcutaneous.
[5] abbreviates: test substance 10 mg/kg subcutaneous.

The structures appear in SMILES notation.

Regarding `Cc1ccc(/C=C2\C[C@@]3(O)[C@H]4Cc5ccc(O)c6c5[C@@]3(CCN4CC3CC3)[C@@H](O6)C2=O)cc1` [Compound 3], the entries for the “Transfer Rate of Carbon Powder (%)” value in assay [1] (setting [3]), in assay [1] (setting [4]) and in assay [1] (setting [5]) were 32 ± 2%, 43 ± 1 % and 53 ± 3 %, respectively.
In the case of `CCOC(=O)c1ccc2c3c([nH]c2c1)[C@@H]1Oc2c(O)ccc4c2[C@@]12CCN(CC1CC1)[C@H](C4)[C@]2(O)C3` [Compound 2], the “Transfer Rate of Carbon Powder (%)” value in assay [1] (setting [3]) is listed as 35 ± 3%; in assay [1] (test substance 3 mg/kg oral), 43 ± 2 %; in assay [1] (setting [4]), 53 ± 3 %; in assay [1] (test substance 10 mg/kg oral), 38 ± 2 %; in assay [1] (setting [5]), 55 ± 2 %; in assay [1] (test substance 30 mg/kg oral), 52 ± 3 %.
On to `O=C(O)c1ccc2c3c([nH]c2c1)[C@@H]1Oc2c(O)ccc4c2[C@@]12CCN(CC1CC1)[C@H](C4)[C@]2(O)C3` [Compound I-1, 17-cyclopropylmethyl-6,7-didehydro-4,5α-epoxy-3,14β-dihydroxy-6′-carboxy-6,7-2′,3′-indolomorphinan], for which the “ED50 against morphine-induced small intestine transit inhibition” value in assay [2] (test substance s.c. 75 min before morphine 3 mg/kg s.c., calculated from % MPE) is 0.29 mg/kg. In addition, the “antagonistic action against morphine-induced small intestine transit inhibition” value in assay [2] (test substance s.c., morphine 3 mg/kg s.c.) is “exhibited antagonistic action”.
Consider `Cn1c2c(c3ccccc31)C[C@@]1(O)[C@H]3Cc4ccc(O)c5c4[C@@]1(CCN3CC1CC1)[C@H]2O5` [Compound 1], for which the “Transfer Rate of Carbon Powder (%)” value in assay [1] (setting [3]) is 41 ± 2 %; in assay [1] (test substance 3 mg/kg oral), 38 ± 2 %; in assay [1] (setting [4]) it was 43 ± 3 %; in assay [1] (test substance 10 mg/kg oral), 35 ± 2 %; in assay [1] (setting [5]), 46 ± 3 %; in assay [1] (test substance 30 mg/kg oral), 40 ± 2 %.
